Measurements published in BindingDB's records for doi:10.1016/j.bioorg.2014.08.007 (Central University of Punjab, 2014).

Molecular target: Xanthine dehydrogenase/oxidase (Bos taurus, UniProt P80457)
Test: XO inhibitory assay
Details: pH 7.5; 25 °C
Description: The reaction mixture contained 1.5 mL of 50 mM potassium phosphate buffer (pH 7.5), 1 mL test sample solutions (5, 10, 25, 50, and 100 µM) was dissolved in DMSO, 0.5 mL of XO enzyme solution (0.2 units/mL of xanthine oxidase in phosphate buffer). The reaction mixture was pre-incubated at room temperature for 15 min, followed by the addition of 1 mL of substrate solution (0.10 mM of xanthine). The mixture was further incubated at room temperature for 30 min and stopped with the addition of 1 mL of 1 M HCl.

Sequence of Xanthine dehydrogenase/oxidase (P80457 whole entry): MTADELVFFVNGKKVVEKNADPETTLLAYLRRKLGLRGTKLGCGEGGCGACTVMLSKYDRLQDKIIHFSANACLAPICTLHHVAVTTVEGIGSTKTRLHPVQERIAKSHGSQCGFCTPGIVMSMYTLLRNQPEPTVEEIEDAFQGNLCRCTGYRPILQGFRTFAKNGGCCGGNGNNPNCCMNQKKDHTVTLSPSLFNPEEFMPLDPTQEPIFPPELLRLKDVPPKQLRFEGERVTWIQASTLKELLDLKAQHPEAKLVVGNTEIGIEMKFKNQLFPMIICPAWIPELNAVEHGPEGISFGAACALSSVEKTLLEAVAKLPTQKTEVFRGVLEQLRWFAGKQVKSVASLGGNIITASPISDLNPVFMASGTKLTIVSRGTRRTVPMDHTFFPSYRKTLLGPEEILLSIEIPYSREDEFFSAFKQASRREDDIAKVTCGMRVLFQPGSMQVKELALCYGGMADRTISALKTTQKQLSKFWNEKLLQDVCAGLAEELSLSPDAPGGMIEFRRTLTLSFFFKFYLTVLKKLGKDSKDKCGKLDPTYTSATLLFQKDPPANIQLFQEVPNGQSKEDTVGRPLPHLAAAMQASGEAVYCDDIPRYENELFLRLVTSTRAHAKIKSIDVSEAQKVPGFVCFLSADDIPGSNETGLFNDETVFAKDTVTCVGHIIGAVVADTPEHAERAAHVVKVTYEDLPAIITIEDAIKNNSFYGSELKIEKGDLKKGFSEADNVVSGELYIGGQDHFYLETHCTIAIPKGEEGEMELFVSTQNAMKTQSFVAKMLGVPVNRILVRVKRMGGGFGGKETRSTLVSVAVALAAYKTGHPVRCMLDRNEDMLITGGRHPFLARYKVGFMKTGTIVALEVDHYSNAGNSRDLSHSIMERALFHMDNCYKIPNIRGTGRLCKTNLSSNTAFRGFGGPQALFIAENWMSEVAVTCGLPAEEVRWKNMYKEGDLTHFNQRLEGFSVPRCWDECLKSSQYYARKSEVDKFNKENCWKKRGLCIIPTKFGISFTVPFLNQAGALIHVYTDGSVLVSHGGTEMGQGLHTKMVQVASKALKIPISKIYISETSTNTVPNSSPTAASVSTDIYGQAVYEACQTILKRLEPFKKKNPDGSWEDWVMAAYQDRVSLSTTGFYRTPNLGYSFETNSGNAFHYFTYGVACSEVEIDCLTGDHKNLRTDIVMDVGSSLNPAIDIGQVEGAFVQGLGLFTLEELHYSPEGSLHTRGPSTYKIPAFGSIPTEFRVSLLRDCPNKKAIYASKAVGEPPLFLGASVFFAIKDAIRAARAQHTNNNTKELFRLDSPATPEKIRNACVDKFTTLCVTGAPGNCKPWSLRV

Row | IC50 | Structure (SMILES)
1 | 41.7 µM | Nc1ccccc1-c1cc(-c2ccccc2)n[nH]1
2 | 11 µM | Oc1c(Cl)cc(Cl)cc1C1Nc2ccccc2-c2cc(-c3ccccc3)nn21 (centres undefined) [2,4‐dichloro‐6‐{2‐phenyl‐5H,6H‐pyrazolo[1,5‐ c]quinazolin‐5‐yl}phenol (6g)]
3 | 43.6 µM | COc1ccc(C2Nc3ccccc3-c3cc(-c4ccccc4)nn32)cc1OC (centres undefined) [5‐(3,4‐dimethoxyphenyl)‐2‐phenyl‐5H,6H‐ pyrazolo[1,5‐c]quinazoline (6e)]
4 | 20.9 µM | O=[N+]([O-])c1cccc(C2Nc3ccccc3-c3cc(-c4ccccc4)nn32)c1 (centres undefined) [5‐(3‐nitrophenyl)‐2‐phenyl‐5H,6H‐pyrazolo[1,5‐ c]quinazoline (6h)]
